US9920042B2, “Compounds for use in the treatment of mycobacterial infections” (Universite de Droit et de la Sante de Lille 2, priority 2012, dated 2018)

Tests used:
[1] = tested on: M. tuberculosis alone or macrophages infected by M. tuberculosis; assay: Potentiation of ethionamide cell test (High Content Screening); format: cell-based; conditions: ligand concentration potentiating ten times the activity of ethionamide; ethionamide constant at 0.1 μg/mL (1/10th of its CMI99); read-out: EC50
Measurement of the log D = format: physicochemical; conditions: octanol/PBS (1/1); octanol/PBS at pH 7.4, triplicate
Experimental: 40 μL of a solution at 10 mM in the DMSO of the sample are added to 1.96 mL of a mixture of 1/1 octanol/PBS at pH 7.4. The solution is agitated during 2 h at AT. 20 μL of each phase are added to 180 μL MeOH and analyzed by LC-MS. Each compound is evaluated in triplicate. The log D is determined as being the logarithm of the ratio of the product concentrations in the octanol and PBS phases, determined par the mass signals.

[2] = Measurement of the solubility; format: physicochemical; conditions: aqueous buffer, kinetic from dmso stock; PBS at pH 7.4, 24 h at AT, LC-MS ratio PBS/MeOH; read-out: Solubilité
Experimental: Measurement of the Solubility
40 μL of a solution at 10 mM in DMSO of the sample are added at 1.96 mL MeOH or PBS at pH 7.4. The samples are then agitated during 24 h at AT, centrifuged during 5 min and then filtrated on filters of 0.45 μm size. 20 μL of each solution are then added to 180 μL MeOH and then analyzed by LC-MS. The solubility is determined as ratio of the surfaces of the mass signals PBS/MeOH.

EthR protein = EthR protein (Mycobacterium tuberculosis, UniProt P9WMC1); assay: TSA test (Thermal Shift Assay), fluorescence with Sypro Orange; format: binding, M. tuberculosis; conditions: melting temperature shift of EthR with ligand vs protein alone
[3] = biological target: EthR protein (interaction with the ethA gene promoter) (Mycobacterium tuberculosis, UniProt P9WMC1); assay: Surface Plasmon Resonance test (SPR): inhibition of EthR binding to the ethA gene promoter; format: biochemical, M. tuberculosis
Description: Surface Plasmon Resonance test (SPR) (described in the article “Ethionamide Boosters Combining Bioisosteric Replacement and Structure-Based Drug Design to Solve Pharmacokinetic Issues in a series of potent 1,2,4-Oxadiazole EthR Inhibitors” published in 2012 in the Journal of Medicinal Chemistry)
After having measured the ligands' affinity for the protein, it is necessary to verify that this does indeed result in the inactivation of the transcriptional repressor, thus preventing it from binding to its operon. For this, a functional test based on the principle of surface plasmon resonance is used. Surface Plasmon Resonance (SPR) makes it possible to visualize in real time the phenomena of association or dissociation between a partner immobilized on a biosensor and, a second partner injected in a continuous flow onto this surface. In the present case, the SPR technique enables the interaction between the EthR protein (analyte injected in continuous flow) and the ethA gene promoter (partner immobilized on the surface) to be visualized. Two cells are used for the test: a measuring cell onto which the so-called relevant DNA is affixed, i.e. corresponding to the ethA gene promoter, and a control cell on which is a non-relevant (thus different) DNA strand of same length, enabling the non-specific protein/DNA interactions to be removed. In a first step, the EthR protein is injected alone, until saturation, which enables a signal SIEthR corresponding to the quantity of EthR protein that has come to bind to the DNA to be measured. In a second step, the experience is reiterated in the presence of a potential ligand at different concentrations. If the compound binds to the EthR, thus preventing it from coming to bind on the DNA, a diminution of the response of the dose-dependent signal (SIEthR+lig) is observed.
By using the equation hereafter, it is possible to calculate for each concentration a percentage for the inhibition of the ligand under examination:
By representing the variation of the inhibition percentage depending on the ligand concentration, a value for IC50 can be deduced.

EthR protein, sequence (P9WMC1 whole entry, looked up): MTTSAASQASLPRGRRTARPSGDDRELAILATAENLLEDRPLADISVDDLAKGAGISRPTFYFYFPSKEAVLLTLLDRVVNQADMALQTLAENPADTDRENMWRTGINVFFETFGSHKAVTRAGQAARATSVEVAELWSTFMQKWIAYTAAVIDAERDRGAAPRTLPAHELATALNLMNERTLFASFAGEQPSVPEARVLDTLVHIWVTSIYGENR
EthR protein (interaction with the ethA gene promoter), sequence (P9WMC1 whole entry, looked up): as above

| Compound | EC50 [1] | logD at 2 h (Measurement of the log D) | solubility at 24 h [2] | ΔTm (EthR protein) | IC50 [3] |
| --- | --- | --- | --- | --- | --- |
| CC(C)OC(=O)Cc1nc(-c2ccc(S(=O)(=O)NCCC(F)(F)F)cc2)cs1 [Compound 35, 2-(4-(4-(N-(3,3,3-trifluoropropyl)sulfamoyl)phenyl)thiazol-2-yl) isopropyl acetate] | 300 nM | 3.76 | 2.8 µM | 11.6 °C |  |
| Cc1nc(-c2ccc(S(=O)(=O)NCCC(C)C)cc2)cs1 [Compound 6, 4-(2-methylthiazol-4-yl)-N-isopentyl benzene sulfonamide] | 5700 nM | 3.55 | 20 µM | 6.1 °C | 4900 ± 100 nM |
| Cc1nc(-c2ccc(C(=O)NCCC(F)(F)F)cc2)cs1 [Compound 43, 4-(2-methylthiazol-4-yl)-N-(3,3,3-trifluoropropyl)benzamide] | 83 nM | 2.82 | 46.9 µM | 11.4 °C | 480 ± 60 nM |
| CCc1cc(-c2nc(-c3ccc(C(=O)NCCC(F)(F)F)cc3)cs2)ccn1 [Compound 58, 4-(2-(2-ethylpyridin-4-yl)thiazol-4-yl)-N-(3,3,3-trifluoropropyl)benzamide] | < 10 nM | 3.95 | 3.3 µM | 13.3 °C |  |
| CC(C)Cc1nc(-c2ccc(C(=O)NCCC(F)(F)F)cc2)cs1 [Compound 49, 4-(2-isobutylthiazol-4-yl)-N-(3,3,3-trifluoropropyl)benzamide] | < 40 nM | 3.91 | 4.4 µM | 12.6 °C | 440 ± 10 nM |
| CC(C)CCCc1nc(-c2ccc(S(=O)(=O)NCCC(F)(F)F)cc2)cs1 [Compound 38, 4-(2-(4-methylpentyl)thiazol-4-yl)-N-(3,3,3-trifluoropropyl)benzene sulfonamide] | 390 nM | > 4 | < 1 µM | 12.4 °C |  |
| O=C(NCCC(F)(F)F)c1ccc(-c2csc(-c3ccncc3)n2)cc1 [Compound 57, 4-(2-(pyridin-4-yl)thiazol-4-yl)-N-(3,3,3-trifluoropropyl)benzamide] | < 10 nM | 3.07 | 29 µM | 12.6 °C |  |
| Cc1nc(-c2ccc(S(=O)(=O)NCCC(F)(F)F)cc2)cs1 [Compound 24] | 290 nM | 3.12 | 41.4 µM | 8.5 °C | 550 ± 20 nM |
